These results are taken from patent US9873702B2, “Heterocyclic compounds as biogenic amine transport modulators” (Southern Research Institute, priority 2014, dated 2018).

Each structure is given as a SMILES string.

In data set [1] the target is dopamine transporter (DAT) (Rattus norvegicus, UniProt P23977). Briefly: Dopamine reuptake ([^3H]dopamine uptake) inhibition in rat brain synaptosomes. Conditions: for IC50: DA Uptake EC50 (nM ± SD), rat caudate synaptosomes, 5 nM [^3H]dopamine, 15 min, 25° C., three experiments pooled; for Emax: read-out: DA Uptake Emax (% I ± SD).
dopamine transporter (DAT), sequence (P23977 whole entry): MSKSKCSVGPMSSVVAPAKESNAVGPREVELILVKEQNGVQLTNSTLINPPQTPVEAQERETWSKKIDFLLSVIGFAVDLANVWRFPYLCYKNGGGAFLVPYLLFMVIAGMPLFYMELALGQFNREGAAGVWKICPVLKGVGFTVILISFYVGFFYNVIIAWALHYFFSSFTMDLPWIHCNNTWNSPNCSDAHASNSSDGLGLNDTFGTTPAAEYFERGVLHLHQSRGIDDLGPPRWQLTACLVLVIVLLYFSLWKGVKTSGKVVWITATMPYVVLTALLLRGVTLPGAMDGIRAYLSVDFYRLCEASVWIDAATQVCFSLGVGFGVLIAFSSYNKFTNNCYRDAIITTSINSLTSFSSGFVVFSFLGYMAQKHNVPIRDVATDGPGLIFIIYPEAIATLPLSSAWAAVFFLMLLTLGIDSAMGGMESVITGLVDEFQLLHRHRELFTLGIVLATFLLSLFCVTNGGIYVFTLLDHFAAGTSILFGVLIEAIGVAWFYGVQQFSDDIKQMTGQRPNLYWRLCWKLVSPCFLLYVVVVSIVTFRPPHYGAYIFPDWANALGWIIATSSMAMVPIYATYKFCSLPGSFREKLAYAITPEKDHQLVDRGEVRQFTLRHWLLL

Regarding `COc1ccc2nc(-c3cnc(N(C)C)nc3)nc(NCC(c3ccccc3)c3ccccc3)c2c1` [compound 60, 2-(2-(Dimethylamino)Pyrimidin-5-yl)-N-(2,2-Diphenylethyl)-6-Methoxyquinazolin-4-Amine], the melting point was determined as 198 °C. Also, in data set [1], the half-inhibitory concentration (IC50) turned out to be 947 ± 402 nM and the Emax worked out at 55 ± 6%.
The like results for `c1ccc(C(CNc2nc(-c3cnc(N4CCCCC4)nc3)nc3ccccc23)c2ccccc2)cc1` [compound 38, N-(2,2-Diphenylethyl)-2-(2-(Piperidin-1-yl)Pyrimidin-5-yl)Quinazolin-4-Amine] were, in that order, 92 °C, 1420 nM and 100%.
The like results for `c1ccc(C(CNc2nc(-c3cccc4ncccc34)nc3ccccc23)c2ccccc2)cc1` [compound 49, N-(2,2-Diphenylethyl)-2-(Quinolin-5-yl)Quinazolin-4-Amine] were, in that order, 207 °C, 130 ± 16 nM and 73 ± 2%.
The like results for `CC(C)(C)OC(=O)n1cc(-c2nc(NCC(c3ccccc3)c3ccccc3)c3ccccc3n2)c2cccnc21` [compound 73, Tert-Butyl 3-(4-((2,2-Diphenylethyl)Amino)Quinazolin-2-yl)-1H-Pyrrolo[2,3-B]Pyridine-1-Carboxylate] were, in that order, 105 °C, 1310 nM and < 100%.
On to `c1ccc(C(CNc2nc(-c3ccc4[nH]nnc4c3)nc3ccccc23)c2ccccc2)cc1` [compound 63, 2-(1H-Benzo[D][1,2,3]Triazol-5-yl)-N-(2,2-Diphenylethyl)Quinazolin-4-Amine], for which the melting point stood at 220 °C. Moreover, in data set [1], the 50% inhibitory concentration (IC50) was 192 ± 37 nM and the maximum response (Emax) stood at 72 ± 3%.
The like results for `c1ccc2c(NCC(c3ccncc3)c3ccncc3)nc(-c3ccc4nccn4c3)nc2c1` [compound 158, N-(2,2-Di(Pyridin-4-yl)Ethyl)-2-(Imidazo[1,2-A]Pyridin-6-yl)Quinazolin-4-Amine] were, in that order, 192 to 196 °C, 66 ± 10 nM and 68 ± 2%.
The like results for `c1ccc(C(CNc2nc(-c3cccc4[nH]ncc34)nc3ccccc23)c2ccccc2)cc1` [compound 35, N-(2,2-Diphenylethyl)-2-(1H-Indazol-4-yl)Quinazolin-4-Amine] were, in that order, 229 °C, 475 ± 85 nM and 72 ± 3%.
`Cc1cc2nccn2cc1-c1nc(NCC(c2ccccc2)C2CC2)c2ccccc2n1` (stereo not drawn) [compound 179, N-(2-Cyclopropyl-2-Phenylethyl)-2-(7-Methylimidazo[1,2-A]Pyridin-6-yl)Quinazolin-4-Amine] yielded a melting point of 236 to 238 °C. Besides, in data set [1], the half-inhibitory concentration (IC50) is 3 ± 1 nM and the Emax is 80 ± 4%.
The like results for `c1ccc(C(CNc2nc(-n3cnc4cncnc43)nc3ccccc23)c2ccccc2)cc1` [compound 90, N-(2,2-Diphenylethyl)-2-(9H-Purin-9-yl)Quinazolin-4-Amine] were, in that order, 264 °C, 94 ± 10 nM and 75 ± 2%.
The like results for `c1ccc(CCNc2nc(N3CCc4[nH]ccc4C3)nc3ccccc23)cc1` [compound 202, 2-(6,7-Dihydro-1H-Pyrrolo[3,2-c]Pyridin-5(4H)-yl)-N-Phenethylquinazolin-4-Amine] were, in that order, 161 to 163 °C, 94 ± 18 nM and 100 ± 3%.
As to `c1ccc(C(CNc2nc(-c3ccc4cn[nH]c4c3)nc3ccccc23)c2ccccc2)cc1` [compound 34, N-(2,2-Diphenylethyl)-2-(1H-Indazol-6-yl)Quinazolin-4-Amine], the melting point amounted to 223 °C. Besides, in data set [1], inhibition was half-maximal at 123 ± 20 nM (IC50) and the Emax was determined as 68 ± 2%.
Compound `Nc1ncc(-c2nc(NCC(O)(c3ccccc3)c3ccccc3)c3ccccc3n2)cn1` [compound 97, 2-((2-(2-Aminopyrimidin-5-yl)Quinazolin-4-yl)Amino)-1,1-Diphenylethanol] displayed a melting point of 222 °C. In addition, in data set [1], half-maximal inhibition (IC50) required 665 ± 150 nM and the Emax turned out to be 90 ± 5%.
The like results for `c1ccc(C(CNc2nc(-c3ccc4cnccc4c3)nc3ccccc23)c2ccccc2)cc1` [compound 133, N-(2,2-Diphenylethyl)-2-(Isoquinolin-6-yl)Quinazolin-4-Amine] were, in that order, 242 to 244 °C, 194 ± 30 nM and 70 ± 2%.
`Cn1ccc2cc(-c3nc(NCC(c4ccccc4)c4cccnc4)c4ccccc4n3)ccc21` (stereo not drawn) [compound 137, 2-(1-Methyl-1H-Indol-5-yl)-N-(2-Phenyl-2-(Pyridin-3-yl)Ethyl)Quinazolin-4-Amine] displayed a melting point of 91 to 93 °C. For the same compound, in data set [1], it took 44 ± 8 nM to reach half-maximal inhibition (IC50) and the Emax amounted to 76 ± 2%.
`Cn1cc2c(-c3nc(NCC(c4ccccc4)c4ccccc4)c4ccccc4n3)cccc2n1` [compound 68, N-(2,2-Diphenylethyl)-2-(2-Methyl-2H-Indazol-4-yl)Quinazolin-4-Amine] gave a melting point of 121 °C. Moreover, in data set [1], the IC50 is 195 ± 70 nM and the Emax was determined as 55 ± 4%.
The like results for `c1ccc(C(CCNc2nc(-c3cncnc3)nc3ccccc23)c2ccccc2)cc1` [compound 22, N-(3,3-Diphenylpropyl)-2-(Pyrimidin-5-yl)Quinazolin-4-Amine] were, in that order, 154 °C, 750 nM and 100%.
`c1ccc(C(c2ccccc2)N2CC(Nc3nc(-c4ccc5nccn5c4)nc4ccccc34)C2)cc1` [compound 148, N-(1-Benzhydrylazetidin-3-yl)-2-(Imidazo[1,2-A]Pyridin-6-yl)Quinazolin-4-Amine]: the melting point was 67 to 69 °C. For the same compound, in data set [1], the IC50 stood at 91 ± 21 nM and the Emax came to 81 ± 3%.
Consider `CS(=O)(=O)Nc1ncc(-c2nc(NCC(c3ccccc3)c3ccccc3)c3ccccc3n2)cn1` [compound 139, N-(5-(4-((2,2-Diphenylethyl)Amino)Quinazolin-2-yl)Pyrimidin-2-yl)Methanesulfonamide], for which the melting point was found to be 214 °C. Further, in data set [1], inhibition was half-maximal at 205 ± 32 nM (IC50) and the maximal effect (Emax) was determined as 67 ± 2%.
The like results for `c1ccc(C(CCNc2nc(N3CCCCC3)nc3ccccc23)c2ccccc2)cc1` [compound 9, N-(3,3-Diphenylpropyl)-2-(piperidin-1-yl)quinazolin-4-amine] were, in that order, 160 to 164 °C, 140 nM and 100%.
With `c1ccc2c(NCC(c3ccncc3)c3ccncc3)nc(-c3ccc4[nH]ccc4c3)nc2c1` [compound 173, N-(2,2-Di(pyridin-4-yl)Ethyl)-2-(1H-Indol-5-yl)Quinazolin-4-Amine], the melting point lay in the range of 201 to 202 °C. In data set [1], the IC50 worked out at 140 ± 30 nM and the Emax was 80 ± 3%.
In turn, `CC(C)(C)OC(=O)Nc1ncc(-c2nc(NCC(c3ccccc3)c3ccccc3)c3ccccc3n2)cn1` [compound 43, Tert-Butyl (5-(4-((2,2-Diphenylethyl)Amino)Quinazolin-2-yl)Pyrimidin-2-yl)Carbamate] registered a melting point of 189 °C. Besides, in data set [1], the IC50 was determined as 1890 nM and the maximal effect (Emax) was < 100%.
The like results for `COc1cc2nc(-c3cccnc3)nc(NCC(c3ccccc3)c3ccccc3)c2cc1OC` [compound 28, N-(2,2-Diphenylethyl)-6,7-Dimethoxy-2-(Pyridin-3-yl)Quinazolin-4-Amine] were, in that order, 89 °C, 620 nM and < 100%.
The like results for `Cc1cc2nccn2cc1-c1nc(NCC(Cc2ccccc2)Cc2ccccc2)c2ccccc2n1` [compound 182, N-(2-Benzyl-3-Phenylpropyl)-2-(7-Methylimidazo[1,2-A]Pyridin-6-yl)Quinazolin-4-Amine] were, in that order, 181 to 184 °C, 8.3 ± 0.9 nM and 75 ± 1%.
Regarding `Oc1nc2cc(-c3nc(NCC(c4ccccc4)c4ccccc4)c4ccccc4n3)ccc2[nH]1` [compound 79, 5-(4-((2,2-Diphenylethyl)Amino)Quinazolin-2-yl)-1H-Benzo[D]Imidazol-2-ol], the melting point amounted to 215 °C. Further, in data set [1], 51 ± 14 nM corresponded to half-maximal inhibition (IC50) and the maximal effect (Emax) was determined as 94 ± 4%.
The like results for `CC(C)C(CNc1nc(-c2ccc3nccn3c2)nc2ccccc12)c1ccccc1` (stereo not drawn) [compound 168, 2-(Imidazo[1,2-A]Pyridin-6-yl)-N-(3-Methyl-2-Phenylbutyl)Quinazolin-4-Amine] were, in that order, 195 to 196 °C, 24 ± 5 nM and 75 ± 2%.
In the case of `CCC(CNc1nc(-c2cn3ccnc3cc2C)nc2ccccc12)c1ccccc1` (stereo not drawn) [compound 188, 2-(7-Methylimidazo[1,2-A]Pyridin-6-yl)-N-(2-Phenylbutyl)Quinazolin-4-Amine], the melting point lay in the range of 232 to 234 °C. In data set [1], inhibition was half-maximal at 1.4 ± 0.2 nM (IC50) and the Emax amounted to 75 ± 2%.
`c1ccc(C(CNc2nc(-c3ccc4nccn4c3)nc3ccccc23)N2CCCCC2)cc1` (stereo not drawn) [compound 119, 2-(Imidazo[1,2-A]Pyridin-6-yl)-N-(2-Phenyl-2-(Piperidin-1-yl)Ethyl)Quinazolin-4-Amine]: the melting point lay within 193 to 195 °C. Also, in data set [1], the IC50 amounted to 117 ± 35 nM and the maximum response (Emax) is 83 ± 5%.
The like results for `Cn1cc(-c2nc(NCC(c3ccccc3)c3ccccc3)c3ccccc3n2)cn1` [compound 76, N-(2,2-Diphenylethyl)-2-(1-Methyl-1H-Pyrazol-4-yl)Quinazolin-4-Amine] were, in that order, 211 °C, 170 nM and < 100%.
Compound `c1ccc(C(CNc2nc(-c3cnc4[nH]ccc4c3)nc3ccccc23)c2ccccc2)cc1` [compound 123, N-(2,2-Diphenylethyl)-2-(1H-Pyrrolo[2,3-B]Pyridin-5-yl)Quinazolin-4-Amine] returned a melting point of 193 °C. Moreover, in data set [1], the IC50 stood at 31 ± 5 nM and the maximum response (Emax) came to 69 ± 2%.
